According to patent US12129237B2, “Substituted diaminocarboxamide and diaminocarbonitrile pyrimidines, compositions thereof, and methods of treatment therewith” (SIGNAL PHARMACEUTICALS, LLC, priority 2011, dated 2024):
pIC50: −log10 of the molar value.

These compounds were tested against T1, JNK1 (Homo sapiens, UniProt P45983) (assay: JNK1 biochemical assays (one or more of: time resolved fluorescence, Z'-LYTE Cascade, radioactive)). Conditions: one or more of the JNK1 biochemical assays; read-out: Act. Level (JNK1 IC50 activity level).
T1 construct: purchased Carna Biosciences
T1 sequence (P45983 whole entry): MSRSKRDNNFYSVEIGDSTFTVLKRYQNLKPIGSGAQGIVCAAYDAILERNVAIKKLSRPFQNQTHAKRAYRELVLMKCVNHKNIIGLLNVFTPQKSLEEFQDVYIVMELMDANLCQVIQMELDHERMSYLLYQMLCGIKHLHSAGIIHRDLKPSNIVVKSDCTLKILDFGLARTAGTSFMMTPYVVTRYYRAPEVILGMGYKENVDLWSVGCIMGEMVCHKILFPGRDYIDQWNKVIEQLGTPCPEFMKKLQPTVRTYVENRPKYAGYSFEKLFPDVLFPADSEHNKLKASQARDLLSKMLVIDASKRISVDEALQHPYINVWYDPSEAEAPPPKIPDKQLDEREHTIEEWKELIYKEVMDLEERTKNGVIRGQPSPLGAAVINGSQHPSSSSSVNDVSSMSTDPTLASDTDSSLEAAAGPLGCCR

Structure (SMILES) | pIC50
CCO[C@H]1CC[C@H](Nc2ncc(C(N)=O)c(N[C@H](C)C3CC3)n2)CC1 [Example 411, 4-((R)-1-cyclopropylethylamino)-2-((1r,4R)-4-ethoxycyclohexylamino)pyrimidine-5-carboxamide] | > 6.70
CC1(Nc2nc(NC34CCC(O)(CC3)CC4)ncc2C(N)=O)CCC1 [Example 412, 2-(4-hydroxybicyclo[2.2.2]octan-1-ylamino)-4-(1-methylcyclobutylamino)pyrimidine-5-carboxamide] | > 6.70
NC(=O)c1cnc(NC23CCC(O)(CC2)CC3)nc1NC12CC(C1)C2 [Example 417, 4-(bicyclo[1.1.1]pentan-1-ylamino)-2-(4-hydroxybicyclo[2.2.2]octan-1-ylamino)pyrimidine-5-carboxamide] | > 6.70
CN(C)C(=O)[C@H]1CC[C@H](Nc2ncc(C(N)=O)c(NC34CC(C3)C4)n2)CC1 [Example 418, 4-(bicyclo[1.1.1]pentan-1-ylamino)-2-((1r,4r)-4-(dimethylcarbamoyl)cyclohexylamino)pyrimidine-5-carboxamide] | > 6.70
NC(=O)c1cnc(N[C@H]2CC[C@H](OCC(F)(F)F)CC2)nc1NC12CC(C1)C2 [Example 419, 4-(bicyclo[1.1.1]pentan-1-ylamino)-2-((1r,4r)-4-(2,2,2-trifluoroethoxy)cyclohexylamino)pyrimidine-5-carboxamide] | > 6.70
NC(=O)c1cnc(N[C@H]2CC[C@H](OC(F)F)CC2)nc1NC12CC(C1)C2 [Example 420, 4-(bicyclo[1.1.1]pentan-1-ylamino)-2-((1r,4r)-4-(difluoromethoxy)cyclohexylamino)pyrimidine-5-carboxamide] | > 6.70
CO[C@H]1CC[C@H](Nc2ncc(C(N)=O)c(N[C@H](C)C3CC3)n2)CC1 [Example 421, 4-((R)-1-cyclopropylethylamino)-2-((1r,4R)-4-methoxycyclohexylamino)pyrimidine-5-carboxamide] | > 6.70
C[C@@H](Nc1nc(NC2CCOCC2)ncc1C(N)=O)C1CC1 [Example 424, (R)-4-(1-cyclopropylethylamino)-2-(tetrahydro-2H-pyran-4-ylamino)pyrimidine-5-carboxamide] | > 6.70
C[C@@H](Nc1nc(N[C@H]2CC[C@H](C(=O)N(C)C)CC2)ncc1C(N)=O)C1CC1 [Example 425, 4-((R)-1-cyclopropylethylamino)-2-((1r,4R)-4-(dimethylcarbamoyl)cyclohexylamino)pyrimidine-5-carboxamide] | > 6.70
C[C@@H](Nc1nc(N[C@H]2CC[C@H](OC(F)F)CC2)ncc1C(N)=O)C1CC1 [Example 426, 4-((R)-1-cyclopropylethylamino)-2-((1r,4R)-4-(difluoromethoxy)cyclohexylamino)pyrimidine-5-carboxamide] | > 6.70
NC(=O)c1cnc(N[C@H]2CC[C@H](OC3CC3)CC2)nc1NC1CCC1 [Example 434, 4-(cyclobutylamino)-2-((1r,4r)-4-cyclopropoxycyclohexylamino)pyrimidine-5-carboxamide] | > 6.70
NC(=O)c1cnc(N[C@H]2CC[C@H](O)CC2)nc1NC12CC(C(F)(F)F)(C1)C2 [Example 440, 2-((1r,4r)-4-hydroxycyclohexylamino)-4-(3-(trifluoromethyl)bicyclo[1.1.1]pentan-1-ylamino)pyrimidine-5-carboxamide] | > 6.70
CC12CC(Nc3nc(N[C@H]4CC[C@H](OC5CC5)CC4)ncc3C(N)=O)(C1)C2 [Example 442, 2-((1r,4r)-4-cyclopropoxycyclohexylamino)-4-(3-methylbicyclo[1.1.1]pentan-1-ylamino)pyrimidine-5-carboxamide] | > 6.70
CCO[C@H]1CC[C@H](Nc2ncc(C(N)=O)c(NC34CC(C)(C3)C4)n2)CC1 [Example 443, 2-((1r,4r)-4-ethoxycyclohexylamino)-4-(3-methylbicyclo[1.1.1]pentan-1-ylamino)pyrimidine-5-carboxamide] | > 6.70
CC(C)(Nc1nc(NC23CCC(O)(CC2)C3)ncc1C(N)=O)C1CC1 [Example 445, 4-(2-cyclopropylpropan-2-ylamino)-2-(4-hydroxybicyclo[2.2.1]heptan-1-ylamino)pyrimidine-5-carboxamide] | > 6.70
CC1(Nc2nc(NC34CCC(O)(CC3)C4)ncc2C(N)=O)CCCC1 [Example 446, 2-(4-hydroxybicyclo[2.2.1]heptan-1-ylamino)-4-(1-methylcyclopentylamino)pyrimidine-5-carboxamide] | > 6.70

Continued, values first:

pIC50 | Structure (SMILES)
> 6.70 | CC1(Nc2nc(NC3CCOCC3)ncc2C(N)=O)CCC1 [Example 413, 4-(1-methylcyclobutylamino)-2-(tetrahydro-2H-pyran-4-ylamino)pyrimidine-5-carboxamide]
> 6.70 | CN(C)C(=O)[C@H]1CC[C@H](Nc2ncc(C(N)=O)c(NC3(C)CCC3)n2)CC1 [Example 414, 2-((1r,4r)-4-(dimethylcarbamoyl)cyclohexylamino)-4-(1-methylcyclobutylamino)pyrimidine-5-carboxamide]
> 6.70 | CC1(Nc2nc(N[C@H]3CC[C@H](OCC(F)(F)F)CC3)ncc2C(N)=O)CCC1 [Example 415, 4-(1-methylcyclobutylamino)-2-((1r,4r)-4-(2,2,2-trifluoroethoxy)cyclohexylamino)pyrimidine-5-carboxamide]
> 6.70 | CC1(Nc2nc(N[C@H]3CC[C@H](OC(F)F)CC3)ncc2C(N)=O)CCC1 [Example 416, 2-((1r,4r)-4-(difluoromethoxy)cyclohexylamino)-4-(1-methylcyclobutylamino)pyrimidine-5-carboxamide]
> 6.70 | C[C@@H](Nc1nc(N[C@H]2CCCOC2)ncc1C(N)=O)C1CC1 [Example 422, 4-((R)-1-cyclopropylethylamino)-2-((S)-tetrahydro-2H-pyran-3-ylamino)pyrimidine-5-carboxamide]
> 6.70 | C[C@@H](Nc1nc(N[C@@H]2CCC[C@H](O)C2)ncc1C(N)=O)C1CC1 [Example 423, 4-((R)-1-cyclopropylethylamino)-2-((1R,3S)-3-hydroxycyclohexylamino)pyrimidine-5-carboxamide]
6.10 to 6.70 | CC1(C)CCC(Nc2nc(NC34CC(C3)C4)ncc2C(N)=O)CC1O (centres unmarked) [Example 427, 2-(bicyclo[1.1.1]pentan-1-ylamino)-4-(3-hydroxy-4,4-dimethylcyclohexylamino)pyrimidine-5-carboxamide]
> 6.70 | CC1(C)CCC(Nc2nc(NC3CCC3)ncc2C(N)=O)CC1O (centres unmarked) [Example 428, 2-(cyclobutylamino)-4-(3-hydroxy-4,4-dimethylcyclohexylamino)pyrimidine-5-carboxamide]
> 6.70 | CC1(C)CCC(Nc2nc(NC3CCC3)ncc2C(N)=O)CC1O (centres unmarked) [Example 429, 2-(cyclobutylamino)-4-(3-hydroxy-4,4-dimethylcyclohexylamino)pyrimidine-5-carboxamide]
> 6.70 | CC1(Nc2ncc(C(N)=O)c(NC3CCC(C)(C)C(O)C3)n2)CC1 (centres unmarked) [Example 430, 4-(3-hydroxy-4,4-dimethylcyclohexylamino)-2-(1-methylcyclopropylamino)pyrimidine-5-carboxamide]
> 6.70 | CC1(Nc2ncc(C(N)=O)c(NC3CCC(C)(C)C(O)C3)n2)CC1 (centres unmarked) [Example 431, 4-(3-hydroxy-4,4-dimethylcyclohexylamino)-2-(1-methylcyclopropylamino)pyrimidine-5-carboxamide]
> 6.70 | CC1(C)CCC(Nc2nc(NC34CC(C3)C4)ncc2C(N)=O)CC1O (centres unmarked) [Example 432, 2-(bicyclo[1.1.1]pentan-1-ylamino)-4-(3-hydroxy-4,4-dimethylcyclohexylamino)pyrimidine-5-carboxamide]
> 6.70 | NC(=O)c1cnc(N[C@@H]2CCC[C@H](O)C2)nc1NC1CCC1 [Example 433, 4-(cyclobutylamino)-2-((1R,3S)-3-hydroxycyclohexylamino)pyrimidine-5-carboxamide]
> 6.70 | NC(=O)c1cnc(NC2CCOCC2)nc1NC1CCC1 [Example 435, 4-(cyclobutylamino)-2-(tetrahydro-2H-pyran-4-ylamino)pyrimidine-5-carboxamide]
> 6.70 | NC(=O)c1cnc(N[C@H]2CC[C@H](OC(F)F)CC2)nc1NC1CCC1 [Example 436, 4-(cyclobutylamino)-2-((1r,4r)-4-(difluoromethoxy)cyclohexylamino)pyrimidine-5-carboxamide]
> 6.70 | CN(C)C(=O)[C@H]1CC[C@H](Nc2ncc(C(N)=O)c(NC3CCC3)n2)CC1 [Example 437, 4-(cyclobutylamino)-2-((1r,4r)-4-(dimethylcarbamoyl)cyclohexylamino)pyrimidine-5-carboxamide]
> 6.70 | CC1(Nc2ncc(C(N)=O)c(N[C@@H]3CCC[C@H](O)C3)n2)CC1 [Example 438, 4-((1R,3S)-3-hydroxycyclohexylamino)-2-(1-methylcyclopropylamino)pyrimidine-5-carboxamide]
> 6.70 | NC(=O)c1cnc(NC2CCCC2)nc1N[C@@H]1CCC[C@H](O)C1 [Example 439, 2-(cyclopentylamino)-4-((1R,3S)-3-hydroxycyclohexylamino)pyrimidine-5-carboxamide]
> 6.70 | C[C@@H]1CC[C@@H](Nc2nc(NC34CC(C(F)(F)F)(C3)C4)ncc2C(N)=O)C[C@H]1O [Example 441, 4-((1R,3R,4R)-3-hydroxy-4-methylcyclohexylamino)-2-(3-(trifluoromethyl)bicyclo[1.1.1]pentan-1-ylamino)pyrimidine-5-carboxamide]
> 6.70 | C[C@@H]1CC[C@@H](Nc2nc(NC3CC(F)(F)C3)ncc2C(N)=O)C[C@H]1O [Example 444, 2-(3,3-difluorocyclobutylamino)-4-((1R,3R,4R)-3-hydroxy-4-methylcyclohexylamino)pyrimidine-5-carboxamide]
> 6.70 | NC(=O)c1cnc(NC23CCC(O)(CC2)C3)nc1NC1CCC1 [Example 447, 4-(cyclobutylamino)-2-(4-hydroxybicyclo[2.2.1]heptan-1-ylamino)pyrimidine-5-carboxamide]
> 6.70 | NC(=O)c1cnc(N[C@H]2CCCOC2)nc1NC1CCC1 [Example 448, (S)-4-(cyclobutylamino)-2-(tetrahydro-2H-pyran-3-ylamino)pyrimidine-5-carboxamide]
